Results reported in patent publication US20050222253A1, “Anti-cancer nitro- and thia-fatty acids” (priority 1999, published 2005).
Entries after “also recorded” stand apart in the source; their conditions may differ.

Columns and labels:
5-LO [1] = target: T1, 5-LO (Solanum tuberosum, UniProt P37831); assay: Effect on 5-LO catalysed oxidation of arachidonic acid; format: biochemical; conditions: preliminary experiment; purified enzyme; result in words
Method: Based on this consideration, 5-LO, 12-LO and 15-LO catalysed oxidation of the nitro compounds (4a, 4b, 6a, 6b, 8a and 8b) was investigated. Each of the nitro compounds was treated with 15-LO in pH 9.0 buffer (or 5-LO in pH 6.3 buffer and 12-LO in pH 7.4 buffer), and the formation of 15-hydroperoxy derivatives (or 5-hydroperoxy or 12-hydroperoxy derivatives) over time was monitored by LW spectroscopy at 234 nm. […]

15-LO [2] = target: T2, 15-LO (Glycine max, UniProt P08170); assay: 15-LO catalysed oxidation of the nitro compounds (substrate test); format: biochemical, soybean; conditions: pH 9.0 buffer, 234 nm
T2 construct: purchased Sigma Chemical Company
T2 sequence (P08170 1-839): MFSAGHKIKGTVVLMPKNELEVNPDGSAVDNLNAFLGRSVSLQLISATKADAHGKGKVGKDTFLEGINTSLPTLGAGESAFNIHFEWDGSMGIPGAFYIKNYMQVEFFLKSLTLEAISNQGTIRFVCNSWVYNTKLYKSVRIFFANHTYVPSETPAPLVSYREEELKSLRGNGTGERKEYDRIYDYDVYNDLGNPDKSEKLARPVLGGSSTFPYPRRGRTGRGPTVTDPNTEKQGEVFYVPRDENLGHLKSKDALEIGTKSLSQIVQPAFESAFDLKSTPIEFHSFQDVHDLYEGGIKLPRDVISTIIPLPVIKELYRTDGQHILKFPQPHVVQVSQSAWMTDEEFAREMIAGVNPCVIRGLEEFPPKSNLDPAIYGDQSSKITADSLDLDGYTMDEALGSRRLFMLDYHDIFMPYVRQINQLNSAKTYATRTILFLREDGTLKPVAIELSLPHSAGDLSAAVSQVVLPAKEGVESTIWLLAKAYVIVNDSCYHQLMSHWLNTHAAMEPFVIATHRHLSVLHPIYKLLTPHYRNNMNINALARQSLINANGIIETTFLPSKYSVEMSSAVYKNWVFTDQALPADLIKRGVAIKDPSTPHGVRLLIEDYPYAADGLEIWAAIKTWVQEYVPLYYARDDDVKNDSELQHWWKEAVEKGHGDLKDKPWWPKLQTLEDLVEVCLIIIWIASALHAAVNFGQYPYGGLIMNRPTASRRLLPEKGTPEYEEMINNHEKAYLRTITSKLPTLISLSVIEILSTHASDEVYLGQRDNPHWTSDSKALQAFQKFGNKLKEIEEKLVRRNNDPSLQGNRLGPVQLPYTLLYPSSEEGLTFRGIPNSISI
Method: (§1) Based on this consideration, 5-LO, 12-LO and 15-LO catalysed oxidation of the nitro compounds (4a, 4b, 6a, 6b, 8a and 8b) was investigated. Each of the nitro compounds was treated with 15-LO in pH 9.0 buffer (or 5-LO in pH 6.3 buffer and 12-LO in pH 7.4 buffer), and the formation of 15-hydroperoxy derivatives (or 5-hydroperoxy or 12-hydroperoxy derivatives) over time was monitored by LW spectroscopy at 234 nm.

12-LO [3] = target: T3, 12-LO (Sus scrofa, UniProt P16469); assay: 12-LO catalysed oxidation of the nitro compounds (substrate test); format: biochemical, porcine; conditions: pH 7.4 buffer, 234 nm
T3 construct: purchased Cayman Chemical Company
T3 sequence (P16469 1-663): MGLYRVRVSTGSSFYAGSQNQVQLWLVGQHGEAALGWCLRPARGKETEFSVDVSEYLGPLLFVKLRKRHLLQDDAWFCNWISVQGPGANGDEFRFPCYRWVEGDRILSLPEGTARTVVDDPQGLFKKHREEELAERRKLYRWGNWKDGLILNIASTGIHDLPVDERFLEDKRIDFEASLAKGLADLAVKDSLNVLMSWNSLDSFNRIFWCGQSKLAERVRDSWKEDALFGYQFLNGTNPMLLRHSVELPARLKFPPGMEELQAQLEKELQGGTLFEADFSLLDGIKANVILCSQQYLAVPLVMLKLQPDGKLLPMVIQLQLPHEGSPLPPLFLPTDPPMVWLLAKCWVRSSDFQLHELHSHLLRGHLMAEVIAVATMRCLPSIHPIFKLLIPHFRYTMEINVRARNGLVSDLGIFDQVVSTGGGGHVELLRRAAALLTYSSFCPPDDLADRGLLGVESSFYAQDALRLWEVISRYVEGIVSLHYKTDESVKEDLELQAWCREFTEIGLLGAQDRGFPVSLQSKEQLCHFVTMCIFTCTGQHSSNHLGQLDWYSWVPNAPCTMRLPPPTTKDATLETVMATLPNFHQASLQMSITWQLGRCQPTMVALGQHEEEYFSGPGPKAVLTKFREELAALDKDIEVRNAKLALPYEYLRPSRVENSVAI
Method: as §1

15-LO [4] = target: T2, 15-LO; assay: Effect on 15-LO catalysed oxidation of arachidonic acid; format: biochemical, soybean; conditions: preliminary experiment, result in words
12-LO [5] = target: T3, 12-LO; assay: Effect on 12-LO catalysed oxidation of arachidonic acid; format: biochemical, porcine; conditions: preliminary experiment; result in words
Method: as §1
A number of Lx compounds were tested for anti 5-LOX and 12-LOX activities in the human breast cancer cell line, MCF-7. […] The ability of 5-LOX and 12-LOX to produce oxidated products of 20:4n-6 with a different absorption wavelength in the presence of nitroso-PUFA was examined and is shown in the progress curves in FIG. 6. […] Within cells, activation of 5-LOX is facilitated by 5-LOX activating protein (FLAP). Thus, in intact cells, Lx7 and Lx9 may be able to activate 5-LOX at lower concentrations than those required in the purified enzyme system shown in FIG. 6. […] By being able to activate 5-LOX and suppress 12-LOX, these compounds have the desired characteristics of anti-breast cancer agents as discussed previously.
(§2) 15-LO was obtained from Sigma Chemical Company, and 12-LO from Cayman Chemical Company. Arachidonic acid 1, linolenyl alcohol 57a, gamma linolenyl alcohol 5b, arachidonyl alcohol 57c and docosahexaenyl alcohol 57d were purchased from Nu-Chek Prep. Inc. Elysian, Minn., USA. Other chemicals were commercially available from Aldrich Chemical Company.

5-LO [6] = target: T1, 5-LO; assay: 5-LO catalysed oxidation of the nitro compounds (substrate test); format: biochemical; conditions: pH 6.3 buffer, 234 nm
Method: as §1

MCF-7 cells = assay: Killing of MCF-7 breast cancer cells in vitro; format: cell-based, human; conditions: in vitro (FIG. 7); compared with 20:4n-6 toxicity
Excerpt: While interference with 5-LOX or 12-LOX activity individually impacts on growth rates of human breast cancer MCF-7 cells^(55,56), the simultaneous modification of the activities of both enzymes at once may cause death. […] Lx4, a nitroso-compound with the same number of carbon atoms and degree of unsaturation as Lx9 but lacking a COOH group, was ineffective (FIG. 7).

15-LO [7] = target: T2, 15-LO; assay: Effect on 15-LO catalysed oxidation of arachidonic acid; format: biochemical, soybean; conditions: varying concentrations of compound
Method: as §1
The inhibitor constant (Ki or KI) of compound 8a was also determined.
as §2

[8] = listed as (all-Z)-1-nitrotricosa-8,11,14,17-tetraenoic acid

T1 sequence (P37831 whole entry): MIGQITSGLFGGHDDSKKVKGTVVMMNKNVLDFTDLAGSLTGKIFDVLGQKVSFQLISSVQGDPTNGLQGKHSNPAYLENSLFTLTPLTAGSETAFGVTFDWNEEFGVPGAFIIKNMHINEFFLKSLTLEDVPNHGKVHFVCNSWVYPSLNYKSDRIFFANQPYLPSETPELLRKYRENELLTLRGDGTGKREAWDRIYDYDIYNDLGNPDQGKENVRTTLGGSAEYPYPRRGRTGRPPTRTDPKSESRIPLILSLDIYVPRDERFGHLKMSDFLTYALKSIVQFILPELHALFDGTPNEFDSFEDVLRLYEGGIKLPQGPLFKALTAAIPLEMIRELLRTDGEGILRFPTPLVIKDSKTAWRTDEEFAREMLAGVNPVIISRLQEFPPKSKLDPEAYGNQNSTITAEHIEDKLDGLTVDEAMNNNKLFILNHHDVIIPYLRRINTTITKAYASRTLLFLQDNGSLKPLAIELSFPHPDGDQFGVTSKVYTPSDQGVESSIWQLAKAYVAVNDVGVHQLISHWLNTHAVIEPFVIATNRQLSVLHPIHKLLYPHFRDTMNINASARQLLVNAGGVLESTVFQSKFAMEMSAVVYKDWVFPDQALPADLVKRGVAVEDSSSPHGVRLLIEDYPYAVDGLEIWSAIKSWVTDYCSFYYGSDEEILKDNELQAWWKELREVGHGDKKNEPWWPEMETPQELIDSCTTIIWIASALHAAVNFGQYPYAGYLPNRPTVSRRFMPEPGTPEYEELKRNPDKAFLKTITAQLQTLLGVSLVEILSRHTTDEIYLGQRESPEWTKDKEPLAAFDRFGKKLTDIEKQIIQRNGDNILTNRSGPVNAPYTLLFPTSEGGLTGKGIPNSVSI

SMILES	Effect on 5-LO catalysed oxidation of AA (5-LO [1])	Substrate for 15-LO (formation of 15-hydroperoxy derivative) (15-LO [2]; listed as 6b)	Substrate for 15-LO (formation of 15-hydroperoxy derivative) (15-LO [2]; [8])	Substrate for 12-LO (formation of 12-hydroperoxy derivative) (12-LO [3])	Substrate for 12-LO (formation of 12-hydroperoxy derivative) (12-LO [3]; listed as 6b)	Substrate for 12-LO (formation of 12-hydroperoxy derivative) (12-LO [3]; [8])	Effect on 15-LO catalysed oxidation of AA (15-LO [4])	Effect on 12-LO catalysed oxidation of AA (12-LO [5])	Substrate for 5-LO (formation of 5-hydroperoxy derivative) (5-LO [6])	Killing of MCF-7 tumour cells (MCF-7 cells)	Inhibition pattern on 15-LO (1/v vs 1/[s]) (15-LO [7])	Effect on 15-LO catalysed oxidation of AA (15-LO [4]; listed as 3-heptadecyl-3-nitropentane-1,5-dicarboxylic acid)	Effect on 15-LO catalysed oxidation of AA (15-LO [4]; listed as 8a)	melting point
CCCCC/C=C\C/C=C\C/C=C\C/C=C\CCCC(CCC(=O)O)[N+](=O)[O-] (centres unmarked) [Lx7, (all-Z)-4-Nitrotricosa-8,11,14,17-tetraenoic acid]	can activate 5-LOX; also recorded: Activatory	served as a substrate	good substrate; also recorded: comparable to that of arachidonic acid	substrate for 12-LOX	served as a substrate	good substrate	Substrate	Substrate	not for 5-LO	kill these tumour cells				
CCCCCCCCCCCCCCCCCC(CCC(=O)O)(CCC(=O)O)[N+](=O)[O-] [Lx8, 3-Heptadecyl-3-nitropentane-1,5-dicarboxylic acid]	Nil						Inhibitory	Activatory			mixed inhibition pattern	selective inhibitors	inhibitory effect	102 °C
